Data from ChEMBL document CHEMBL1144099, “Three new antibacterial alkaloids from a marine sponge Stelletta species” (1999).

The compounds below were run on Escherichia coli (assay: Antibacterial activity against Escherichia coli at 20 ug/6 mm disk).
Assay type: functional

Row | SMILES | inhibition zone (IZ)
1 | CC(C)=CCC/C(C)=C/CC/C(C)=C/CC(=O)NC[C@@H]1CC[N+]2(C)CCCC[C@H]12.[Cl-] (stereo partly drawn) [STELLETTAMIDE C] | 10.5 mm
2 | CC(C)=CCC/C(C)=C/CC/C(C)=C/CC/C(C)=C/C(=O)NCCc1cn(CCCNC(=N)N)c[n+]1C.[Cl-] [STELLETTAZOLE B] | 6.1 mm
3 | CC(C)=CCC/C(C)=C/CC/C(C)=C/CC/C(C)=C/C(=O)NCCc1cn(CCCN)c[n+]1C.[Cl-] [STELLETTAZOLE C] | 6.2 mm
